Read-outs that look alike come from different tables or passages of the source.
What was measured:
[1] = test system: Pseudomonas aeruginosa efflux+ (MB9798), IMP-1; type: cell-based; design: Concentration of metallo-β-lactamase inhibitor which restores susceptibility of efflux + (MB9798) strain to imipenem: unit not given here; details: C, D serine β-lactamase inhibitor closely related to relebactam; for P. aeruginosa expressing IMP-1, efflux + (MB9798) MITC95: concentration restoring susceptibility to imipenem at 2 μg/mL in the presence of a class A; for Concentration of metallo-β-lactamase inhibitor which restores susceptibility of efflux + (MB9798) strain to imipenem: imipenem at 2 μg/mL, in the presence of a class A
Summary of the method: (§1)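 P. aeruginosa PAO1-derived IMP-1 strains, efflux+ MB9798 and efflux− MB9799, tested by standard microbroth MIC with imipenem and/or ceftazidime fixed, usually at CLSI breakpoint, plus fixed class A/C β-lactamase inhibitor against AmpC. Inhibitor titrated; concentration restoring susceptibility recorded; MB9798/MB9799 fold difference indicates efflux.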

[2] = test system: Pseudomonas aeruginosa efflux− (MB9799), IMP-1; type: cell-based; details: C, D serine β-lactamase inhibitor closely related to relebactam; for P. aeruginosa expressing IMP-1, efflux − (MB9799) MITC95: concentration restoring susceptibility to imipenem at 2 μg/mL in the presence of a class A; for Concentration of metallo-β-lactamase inhibitor which restores susceptibility of efflux − (MB9799) strain to imipenem: imipenem at 2 μg/mL, in the presence of a class A
Summary of the method: as §1

[3] = test system: Pseudomonas aeruginosa MB9798 vs MB9799
Summary of the method: as §1

[4] = biological target: IMP-1 (Serratia marcescens, UniProt P52699); test: biochemical; type: biochemical; details: fluorescence assay, CCF2-FA substrate, 2 pM enzyme, 2 hours at 25° C.; read-out: IMP-1 IC50
Summary of the method: (§2)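 Class B activity is measured in the presence of compound by fluorescence with CCF2-FA after a 2-hour incubation at 25° C. IC50 is taken from a 4-parameter fit of semi-logarithmic dose-response data.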

[5] = biological target: NDM-1 (Klebsiella pneumoniae, UniProt C7C422); test: biochemical; type: biochemical; details: fluorescence assay, CCF2-FA substrate, 1 pM enzyme, 2 hours at 25° C.; read-out: NDM-1 IC50
Summary of the method: as §2

[6] = test system: Escherichia coli expressing NDM-1 (CLB30005, CLB30016); type: cell-based; details: with imipenem 1 μg/ml; for Escherichia coli MITC95: NDM-1 strain, 95% inhibition of growth; for Escherichia coli expressing NDM-1 (CLB30016) MITC95: 95% inhibition of bacterial growth
Summary of the method: (§3)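 Imipenem 1 μg/ml + inhibitor; MBL-expressing clinical strains in 1.1×CAMHB, inoculum from saline suspension diluted 1:100; 35° C, 22–24 h; absorbance read-out.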

[7] = test system: Serratia marcescens expressing IMP-1 (CL5741); type: cell-based; details: for Serratia marcescens MITC95: IMP-1 strain CL5741, with imipenem 1 μg/ml, 95% inhibition of growth; for Serratia marcescens expressing IMP-1 (CL5741) MITC95: with imipenem 1 μg/ml, 95% inhibition of bacterial growth
Summary of the method: as §3

[8] = test system: Klebsiella pneumoniae expressing VIM-1 (IHMA599644); type: cell-based; details: for Klebsiella pneumoniae MITC95: VIM-1 strain IHMA599644, with imipenem 1 μg/ml, 95% inhibition of growth; for Klebsiella pneumoniae expressing VIM-1 (IHMA599644) MITC95: with imipenem 1 μg/ml, 95% inhibition of bacterial growth
Summary of the method: as §3

[9] = biological target: VIM-1 (Pseudomonas aeruginosa (strain ATCC 15692 / DSM 22644 / CIP 104116 / JCM 14847 / LMG 12228 / 1C / PRS 101 / PAO1), UniProt A0A0F7KYQ8); test: biochemical; details: CCF2-FA substrate, 30 pM enzyme, 2 hours at 25° C.
Summary of the method: as §2

[10] = ratio MITC95 PA_9798/MITC95 PA_9799
[11] = fluorescence assay, read-out: VIM-1 IC50
[12] = fold difference between efflux+ (MB9798) and efflux− (MB9799) strains, imipenem at 2 μg/mL

Sequence of NDM-1 (C7C422 whole entry, looked up, species assumed): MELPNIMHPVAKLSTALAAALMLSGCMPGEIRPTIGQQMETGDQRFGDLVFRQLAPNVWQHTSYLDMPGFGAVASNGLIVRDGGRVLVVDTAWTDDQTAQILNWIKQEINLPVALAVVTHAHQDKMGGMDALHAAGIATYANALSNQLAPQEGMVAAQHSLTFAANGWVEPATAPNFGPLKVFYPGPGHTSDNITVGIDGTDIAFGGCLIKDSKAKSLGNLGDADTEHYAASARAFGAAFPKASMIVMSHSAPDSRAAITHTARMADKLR
Sequence of IMP-1 (P52699 whole entry, looked up, species assumed): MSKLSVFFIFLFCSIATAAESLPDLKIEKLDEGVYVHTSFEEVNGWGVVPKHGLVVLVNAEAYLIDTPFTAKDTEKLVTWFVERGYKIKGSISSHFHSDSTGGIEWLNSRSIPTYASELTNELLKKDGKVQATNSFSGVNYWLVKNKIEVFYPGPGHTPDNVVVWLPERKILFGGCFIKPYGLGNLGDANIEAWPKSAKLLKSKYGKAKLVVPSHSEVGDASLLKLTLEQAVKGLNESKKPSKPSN

SMILES | P. aeruginosa expressing IMP-1, efflux + (MB9798) MITC95 [1] [µM] | P. aeruginosa expressing IMP-1, efflux − (MB9799) MITC95 [2] [µM] | Efflux ratio [3, 10] | IC50 [4] [nM] | IC50 [5] [nM] | Escherichia coli MITC95 [6] [µM] | Serratia marcescens MITC95 [7] [µM] | Klebsiella pneumoniae MITC95 [8] [µM] | IC50 ([9]; VIM-1 IC50, fluorescence assay) [nM] | Escherichia coli expressing NDM-1 (CLB30016) MITC95 [6] [µM] | Serratia marcescens expressing IMP-1 (CL5741) MITC95 [7] [µM] | Klebsiella pneumoniae expressing VIM-1 (IHMA599644) MITC95 [8] [µM] | IC50 [9, 11] [nM] | Concentration of metallo-β-lactamase inhibitor which restores susceptibility of efflux + (MB9798) strain to imipenem [1] | Concentration of metallo-β-lactamase inhibitor which restores susceptibility of efflux − (MB9799) strain to imipenem [2] | Efflux ratio [3, 12]
NCCNS(=O)(=O)c1ccc(-c2cccn3ccnc23)c(-c2nn[nH]n2)c1S(N)(=O)=O [Example 361, N1-(2-aminoethyl)-4-(imidazo[1,2-a]pyridin-8-yl)-3-(2H-tetrazol-5-yl)benzene-1,2-disulfonamide] | 0.7813 | 0.7813 | 1.00 | 0.147 | 0.143 | 0.3906 | 0.7813 | 1.563 | 0.0953 |  |  |  |  |  |  | 
Nc1nc2c(-c3ccc(S(=O)(=O)N[C@H]4CCNC4)c(S(N)(=O)=O)c3-c3nn[nH]n3)cccc2[nH]1 [Example 162, 4-(2-amino-1H-benzo[d]imidazol-4-yl)-N^1-((S)-pyrrolidin-3-yl)-3-(2H-tetrazol-5-yl)benzene-1,2-disulfonamide] | 0.4271 | 0.4922 | 0.87 | 0.733 | 0.0607 |  |  |  |  | 0.3203 | 0.5573 | 0.9844 | 0.154 |  |  | 
Nc1nc2c(-c3ccc(S(=O)(=O)NCCN4CCNC(=O)C4)c(S(N)(=O)=O)c3-c3nnn[nH]3)cccc2s1 [Example 15, 4-(2-amino-1,3-benzothiazol-4-yl)-N1-[2-(3-oxopiperazin-1-yl)ethyl]-3-(1H-tetrazol-5-yl)benzene-1,2-disulfonamide] | 12.5 | 12.5 | 1.00 | 0.451 | 0.0926 |  |  |  |  | 50 | 12.5 | 25 | 0.394 |  |  | 
CC1(CN)CN(S(=O)(=O)c2ccc(-c3cccc4sc(N)nc34)c(-c3nnn[nH]3)c2S(N)(=O)=O)C1.O=C(O)C(F)(F)F [Example 101, (1-((4-(2-aminobenzo[d]thiazol-4-yl)-2-sulfamoyl-3-(1H-tetrazol-5-yl)phenyl)sulfonyl)-3-methylazetidin-3-yl)methanaminium 2,2,2-trifluoroacetate] | 3.125 | 3.125 | 1.00 | 1.25 | 0.288 |  |  |  | 0.744 | 3.125 | 3.125 | 6.25 |  |  |  | 
NC[C@@H](N)CNS(=O)(=O)c1ccc(-c2ccc(N)nc2)c(-c2nn[nH]n2)c1S(N)(=O)=O [Example 416] |  |  |  | 1.34 | 0.917 | 0.3906 | 1.563 | 6.25 |  |  |  |  | 0.68 | 3.125 | 3.125 | 1.00
C[C@H]1NC(=O)O[C@H]1c1ccc(-c2ccc(S(=O)(=O)N[C@@H]3CCNC3)c(S(N)(=O)=O)c2-c2nnn[nH]2)cc1 [Example 141, 4′-((4R,5S)-4-methyl-2-oxooxazolidin-5-yl)-N4-((R)-pyrrolidin-3-yl)-2-(1H-tetrazol-5-yl)-[1,1′-biphenyl]-3,4-disulfonamide] | 1.563 | 1.563 | 1.00 | 0.0408 | 0.0186 |  |  |  |  | 3.125 | 6.25 | 6.25 | 0.0623 |  |  | 
CN1CC[C@@H](CNS(=O)(=O)c2ccc(-c3cccc4sc(N)nc34)c(-c3nnn[nH]3)c2S(N)(=O)=O)C1 [Example 76, 4-(2-amino-1,3-benzothiazol-4-yl)-N^1-{[(3R)-1-methylpyrrolidin-3-yl]methyl}-3-(1H-tetrazol-5-yl)benzene-1,2-disulfonamide] | 0.7813 | 1.563 | 0.50 | 0.195 | 0.0285 |  |  |  | 0.129 | 3.125 | 1.563 | 3.125 |  |  |  | 
NCCNS(=O)(=O)c1ccc(-c2cccc(NC(=O)[C@H](N)CO)c2)c(-c2nn[nH]n2)c1S(N)(=O)=O [Example 454, (R)-2-amino-N-(4′-(N-(2-aminoethyl)sulfamoyl)-3′-sulfamoyl-2′-(2H-tetrazol-5-yl)-[1,1′-biphenyl]-3-yl)-3-hydroxypropanamide] |  |  |  | 3.46 | 0.757 | 1.563 | 3.125 | 6.25 |  |  |  |  | 0.262 | 3.125 | 1.563 | 2.00
NC[C@@H]1CCN(S(=O)(=O)c2ccc(-c3cccc4sc(N)nc34)c(-c3nnn[nH]3)c2S(N)(=O)=O)C1 [Example 70, 3-(2-amino-1,3-benzothiazol-4-yl)-6-{[(3S)-3-(aminomethyl)pyrrolidin-1-yl]sulfonyl}-2-(1H-tetrazol-5-yl)benzenesulfonamide] | 3.125 | 3.125 | 1.00 | 2.31 | 1.95 |  |  |  | 2.79 | 6.25 | 3.125 | 12.5 |  |  |  | 
NCCN1CC[C@H](NS(=O)(=O)c2ccc(-c3cccc4[nH]c(N)nc34)c(-c3nn[nH]n3)c2S(N)(=O)=O)C1 [Example 268, (S)-4-(2-amino-1H-benzo[d]imidazol-4-yl)-N1-(1-(2-aminoethyl)pyrrolidin-3-yl)-3-(2H-tetrazol-5-yl)benzene-1,2-disulfonamide] | 0.7813 | 0.7813 | 1.00 | 1.1 | 0.0612 | 0.7813 | 1.563 | 1.563 | 0.15 |  |  |  |  |  |  | 
NCC(CN)NS(=O)(=O)c1ccc(-c2cccc(C3N=NC(N)=N3)c2)c(-c2nn[nH]n2)c1S(N)(=O)=O (stereo not drawn) [Example 229, 3′-(5-amino-3H-1,2,4-triazol-3-yl)-N4-(1,3-diaminopropan-2-yl)-2-(2H-tetrazol-5-yl)-[1,1′-biphenyl]-3,4-disulfonamide] | 1.563 | 3.125 | 0.50 | 0.173 | 0.0308 |  |  |  |  | 0.7813 | 3.125 | 3.125 | 0.12 |  |  | 
Nc1ccc(-c2ccc(S(=O)(=O)NC[C@H]3CNCCN3)c(S(N)(=O)=O)c2-c2nn[nH]n2)cn1 [Example 315, (R)-4-(6-aminopyridin-3-yl)-N1-(piperazin-2-ylmethyl)-3-(1H-tetrazol-5-yl)benzene-1,2-disulfonamide] | 1.563 | 1.563 | 1.00 | 0.459 | 0.169 | 0.3906 | 0.7813 | 6.25 | 0.211 |  |  |  |  |  |  | 

Source: patent publication US10221163B2 (priority 2015, dated 2019)
